Consider 2 compounds from patent US10017480B2, “Compounds having a selective PDE4D inhibiting activity” (UNIVERSITÂ DEGLI STUDI DI GENOVA, priority 2014, dated 2018).

Molecules are shown by their SMILES. Marks after values point to notes of the source that are not given here.

One series deals with PDE4D2 (Homo sapiens, UniProt Q08499). Kind of series: PDE4D2 enzyme inhibition (IMAP). Type of series: biochemical.
A further series addresses PDE4A4 (Homo sapiens, UniProt P27815). Kind of series: PDE4A4 enzyme inhibition (IMAP). It counts as biochemical. Conditions: 10 μM. As for the experimental part:
(§1) Compound's evaluation on PDE4D3, PDE4A4, PDE4B2 and PDE4C2 enzyme assays were performed by Scottish Biomedical (Glasgow, Scotland, UK) using recombinant human PDE enzymes expressed in a baculoviral system. The preliminary screening assays were performed by the IMAP technology (Molecular Devices), which is based on the high affinity binding of phosphate by immobilized metal coordination complexes on nanoparticles. The binding reagent complexes with phosphate groups on nucleotide monophosphate generated from cyclic nucleotides (cAMP) through phosphodiesterases. With fluorescence polarization detection, binding causes a change in the rate of the molecular motion of the phosphate bearing molecule and results in an increase in the fluorescence polarization value observed for the fluorescent label attached to the substrate. […] All compounds were solved in DMSO at 10^−2 M concentration and then diluted with water to the final suitable concentrations. All synthesized compounds were tested preliminary on PDE4D3 at 10^−5 M concentration, in duplicate. Results are expressed as a percent inhibition of control activity (see table 1).
(§2) The IC50 values obtained for the reference compounds are within accepted limits of historic averages obtained (0.5 log unit). IC50 values are reported at μM concentration in table 1. […] The results are reported (as percent of inhibition at 10 μM concentration) in Table 1.

For series [1], the system named is extracellular cAMP in the hippocampus of freely moving rats. Put plainly: In vivo cAMP-enhancing potential, intracerebral microdialysis. As for the experimental part: The in vivo effects of XVIIIa on extracellular cAMP levels in the hippocampus of freely moving rats were analyzed by means of intracerebral microdialysis.
However, when the PDE4D inhibitor was infused at the concentration of 100 μM, a marked cAMP response could be observed (40-80% over basal values) as reported in FIG. 3. The effects of XVIIIa were similar to those previously reported for the PDE4D inhibitor GEBR-7b (lead compound; data taken from Bruno et al., Br. J. Pharmacol. 2011, 164, 2054-2063).
XVIIIa or GEBR-7b were administered through the probe after 3 consecutive control samples had been collected and were present in the infusion fluid for the time indicated by the horizontal empty bar. Data are expressed as percentages of the mean basal value (defined 100%) that was determined by averaging the cAMP content in the three fractions collected before drug treatment. Each point represents the mean±SEM for 3-6 different experiments.

The next series deals with PDE4D3 (Homo sapiens, UniProt Q08499). Kind of series: PDE4D3 enzyme inhibition (IMAP). Type of series: biochemical. As for the experimental part: as §1
IC50 values are reported at μM concentration in table 1. […] The results are reported (as percent of inhibition at 10 μM concentration) in Table 1.

Series [2] has as its system hippocampal slices from Tg2576 mice and WT littermates. Put plainly: Electrophysiological study, LTP in hippocampal slices. Particulars: 2 μM, bath, 20 minutes before theta burst stimulation. As for the experimental part:
Compound XVIIIa was tested to determine whether PDE4D inhibition can revert the damage of synaptic function following Aβ elevation in Tg2576 mice.
All experiments were performed with approval of the Columbia University IACUC Committe. The animals were 12 month old single transgenic mice expressing the human APP mutation (K670N,M671L) (a.k.a. Tg2576), as well as their WT littermates.
Slice recordings were performed as described previously (Trinchese et al, Ann Neurol 2004). Briefly, 400-μm slices were cut with a tissue chopper and maintained in an interface chamber at 29° C. for 90 minutes prior to recording. CA1 fEPSPs were recorded by placing both the stimulating and the recording electrodes in CA1 stratum radiatum. Basal synaptic transmission was assayed either by plotting the stimulus voltages against slopes of fEPSP. For LTP experiments, a 10-minute baseline was recorded every minute at an intensity that evokes a response approximately 35% of the maximum evoked response. Baseline was followed by a 20 minute perfusion with the compound prior to eliciting LTP using θ-burst stimulation (4 pulses at 100 Hz, with the bursts repeated at 5 Hz, and each tetanus including 3 ten-burst trains separated by 15 seconds). […]

The test system of another series is HTLA cells. Kind of series: Genotoxicity, Western blot of γ-H2AX. Particulars: 100 μM. It counts as cell-based, human. The text has this: To evaluate the genotoxic potential of XVIIIa and GEBR-7b, we analyzed the phosphorylation of the chromatin-bound histone H2AX (γ-H2AX), which is a quantitative marker for the DNA damage response at the site of double-strand breaks.
The H2AX signal represents the internal loading control.

Series [3] in a line: Cytotoxicity, lactate-dehydrogenase release. It counts as cell-based. Particulars: human, HTLA human neuronal cells. As for the experimental part:
To evaluate the preliminary toxic profile of the molecule XVIIIa, we performed cytotoxicity and genotoxicity assays on human neuronal cells (HTLA). For the cytotoxic potential, we analyzed the lactate-dehydrogenase release in cells exposed for 24 hours to high concentrations (100 μM) of XVIIIa or GEBR-7b (lead compound—Bruno et al, Br. J. Pharm., 2011, 164:2054).

Another series addresses PDE4D1 (Homo sapiens, UniProt Q08499). Put plainly: PDE4D1 enzyme inhibition (IMAP). It counts as biochemical.
In a further series the target is T1, PDE4C2 (Homo sapiens, UniProt Q08493).
T1 construct: purchased Scottish Biomedical (Glasgow, Scotland, UK); host or cells: baculoviral system
Put plainly: PDE4C2 enzyme inhibition (IMAP). Type of series: biochemical. As for the experimental part: as §1, §2

A short description of series [4]: Pharmacokinetic analysis, plasma and brain.
Series [5] deals with forskolin (FSK)-induced cAMP in neuronal cultured cells. Put plainly: In vitro cAMP-enhancing potential (EIA). Particulars: 100 μM; for basal cAMP levels: without FSK.
The next series addresses T2, PDE4B2 (Homo sapiens, UniProt Q07343).
T2 construct: purchased Scottish Biomedical (Glasgow, Scotland, UK); host or cells: baculoviral system
Put plainly: PDE4B2 enzyme inhibition (IMAP). Type of series: biochemical. Particulars: 10 μM. As for the experimental part: as §1, §2

The test system of a further series is spatial working memory. Put plainly: Y-maze continuous alternation task. Particulars: y-maze 6 min, vehicle 60.36. It counts as in vivo. As for the experimental part: Working memory function is given by the percentage of alternations made while exploring the y-maze for 6 min. No animals were excluded from the statistical analysis.
One-sample t-tests were performed to compare every condition to 50% alternations, i.e. chance level. […] FIG. 7 gives a graphical overview of the Y-maze alternation performance.

Series [6] has as its system spatial object memory performance. Kind of series: OLT dose-response experiment. Conditions: for d2 (discrimination performance): 24 h interval, mean (SEM). Type of series: in vivo.
Series [7] concerns α2-adrenoceptor-mediated anesthesia. Kind of series: Ketamine/xylazine induced α2-adrenoceptor-mediated anesthesia test (emesis surrogate). Type of series: in vivo, mice. Particulars: for Time anesthetized: relative to vehicle (set at 100%). As for the experimental part: A shorter anesthesia time than that of the vehicle condition would implicate emetic-like effects. Anesthesia time was calculated relatively to the vehicle condition, which itself was set at 100%, to control for repeated exposure to the test.

Setting [8] is: brain, male BALB/c mice, 10 mg/kg subcutaneously.
Where [9] appears, read: male, BALB/c, mouse, brain, sc, 10 mg/kg.
Setting [10] is: male, BALB/c, mouse, plasma, sc, 10 mg/kg.
The mark [11] stands for this setting: plasma, male BALB/c mice, 10 mg/kg subcutaneously.

T2 sequence (Q07343 1-564 isoform Q07343-2): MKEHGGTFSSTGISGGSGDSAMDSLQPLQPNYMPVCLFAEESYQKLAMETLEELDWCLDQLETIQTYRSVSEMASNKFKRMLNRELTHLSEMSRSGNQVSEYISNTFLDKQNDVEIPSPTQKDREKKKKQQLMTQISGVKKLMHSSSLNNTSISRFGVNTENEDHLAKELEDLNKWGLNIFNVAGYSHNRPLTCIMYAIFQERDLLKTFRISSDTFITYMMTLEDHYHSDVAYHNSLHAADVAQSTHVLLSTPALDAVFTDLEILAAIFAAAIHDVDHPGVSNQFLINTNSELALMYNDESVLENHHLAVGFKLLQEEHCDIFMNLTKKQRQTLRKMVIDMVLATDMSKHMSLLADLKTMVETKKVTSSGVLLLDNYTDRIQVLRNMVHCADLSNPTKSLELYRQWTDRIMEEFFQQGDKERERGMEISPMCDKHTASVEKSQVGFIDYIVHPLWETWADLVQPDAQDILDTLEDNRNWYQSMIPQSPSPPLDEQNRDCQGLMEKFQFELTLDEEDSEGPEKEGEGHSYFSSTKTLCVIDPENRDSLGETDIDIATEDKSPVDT
PDE4A4, sequence (P27815 whole entry): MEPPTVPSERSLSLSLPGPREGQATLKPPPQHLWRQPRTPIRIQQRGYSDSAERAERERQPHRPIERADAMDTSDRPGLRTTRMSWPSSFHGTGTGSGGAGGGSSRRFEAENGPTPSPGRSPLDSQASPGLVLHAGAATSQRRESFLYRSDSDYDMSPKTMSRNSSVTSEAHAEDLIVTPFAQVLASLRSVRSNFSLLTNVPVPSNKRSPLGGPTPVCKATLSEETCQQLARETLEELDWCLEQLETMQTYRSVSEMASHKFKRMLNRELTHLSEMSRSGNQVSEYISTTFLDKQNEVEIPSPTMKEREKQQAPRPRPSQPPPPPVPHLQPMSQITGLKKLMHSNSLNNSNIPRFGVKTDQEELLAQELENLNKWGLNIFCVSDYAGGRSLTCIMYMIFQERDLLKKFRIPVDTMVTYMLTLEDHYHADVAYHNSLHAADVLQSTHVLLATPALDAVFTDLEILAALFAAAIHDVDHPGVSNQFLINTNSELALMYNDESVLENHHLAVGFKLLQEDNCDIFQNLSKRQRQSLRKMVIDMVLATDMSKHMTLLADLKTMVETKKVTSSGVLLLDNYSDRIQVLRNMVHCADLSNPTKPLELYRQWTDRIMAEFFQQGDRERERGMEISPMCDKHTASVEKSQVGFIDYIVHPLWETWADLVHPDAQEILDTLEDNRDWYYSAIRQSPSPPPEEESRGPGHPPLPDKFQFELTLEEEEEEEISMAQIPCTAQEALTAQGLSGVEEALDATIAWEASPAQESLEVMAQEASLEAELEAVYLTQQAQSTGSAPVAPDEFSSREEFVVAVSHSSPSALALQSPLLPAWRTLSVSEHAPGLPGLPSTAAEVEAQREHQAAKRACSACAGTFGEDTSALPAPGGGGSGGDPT
PDE4D3, sequence (Q08499 1-673 isoform Q08499-2): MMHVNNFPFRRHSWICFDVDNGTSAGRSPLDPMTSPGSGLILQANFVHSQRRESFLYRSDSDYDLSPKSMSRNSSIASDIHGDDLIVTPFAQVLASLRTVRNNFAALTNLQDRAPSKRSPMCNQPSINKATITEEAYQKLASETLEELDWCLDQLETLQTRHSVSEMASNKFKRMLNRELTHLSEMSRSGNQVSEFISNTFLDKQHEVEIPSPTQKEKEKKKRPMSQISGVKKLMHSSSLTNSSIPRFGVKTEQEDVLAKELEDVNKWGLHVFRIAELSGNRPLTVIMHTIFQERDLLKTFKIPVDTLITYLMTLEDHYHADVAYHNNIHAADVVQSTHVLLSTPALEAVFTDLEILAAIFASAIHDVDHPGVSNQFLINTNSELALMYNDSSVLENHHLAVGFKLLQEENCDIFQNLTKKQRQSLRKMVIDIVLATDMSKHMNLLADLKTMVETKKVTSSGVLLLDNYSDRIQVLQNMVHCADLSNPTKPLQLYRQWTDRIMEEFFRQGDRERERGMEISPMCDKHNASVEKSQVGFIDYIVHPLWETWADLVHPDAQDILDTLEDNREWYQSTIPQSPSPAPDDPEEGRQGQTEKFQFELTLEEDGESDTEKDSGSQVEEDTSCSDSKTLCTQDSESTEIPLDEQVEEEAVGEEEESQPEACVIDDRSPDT
PDE4D2, sequence (Q08499 303-809 limits assumed): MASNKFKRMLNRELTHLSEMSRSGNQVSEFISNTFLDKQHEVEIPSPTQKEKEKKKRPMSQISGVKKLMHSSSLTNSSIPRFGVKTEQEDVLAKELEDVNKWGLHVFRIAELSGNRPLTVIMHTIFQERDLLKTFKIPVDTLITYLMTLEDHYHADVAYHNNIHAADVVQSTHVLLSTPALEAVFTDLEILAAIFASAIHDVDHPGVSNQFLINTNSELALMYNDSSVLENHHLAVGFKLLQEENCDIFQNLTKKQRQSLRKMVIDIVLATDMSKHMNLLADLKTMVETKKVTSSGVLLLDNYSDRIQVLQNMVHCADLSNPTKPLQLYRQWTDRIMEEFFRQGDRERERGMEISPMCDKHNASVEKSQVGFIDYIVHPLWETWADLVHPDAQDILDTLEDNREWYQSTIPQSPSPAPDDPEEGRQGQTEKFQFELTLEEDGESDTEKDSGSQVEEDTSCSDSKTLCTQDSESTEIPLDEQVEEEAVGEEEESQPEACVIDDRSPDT
T1 sequence (Q08493 107-712): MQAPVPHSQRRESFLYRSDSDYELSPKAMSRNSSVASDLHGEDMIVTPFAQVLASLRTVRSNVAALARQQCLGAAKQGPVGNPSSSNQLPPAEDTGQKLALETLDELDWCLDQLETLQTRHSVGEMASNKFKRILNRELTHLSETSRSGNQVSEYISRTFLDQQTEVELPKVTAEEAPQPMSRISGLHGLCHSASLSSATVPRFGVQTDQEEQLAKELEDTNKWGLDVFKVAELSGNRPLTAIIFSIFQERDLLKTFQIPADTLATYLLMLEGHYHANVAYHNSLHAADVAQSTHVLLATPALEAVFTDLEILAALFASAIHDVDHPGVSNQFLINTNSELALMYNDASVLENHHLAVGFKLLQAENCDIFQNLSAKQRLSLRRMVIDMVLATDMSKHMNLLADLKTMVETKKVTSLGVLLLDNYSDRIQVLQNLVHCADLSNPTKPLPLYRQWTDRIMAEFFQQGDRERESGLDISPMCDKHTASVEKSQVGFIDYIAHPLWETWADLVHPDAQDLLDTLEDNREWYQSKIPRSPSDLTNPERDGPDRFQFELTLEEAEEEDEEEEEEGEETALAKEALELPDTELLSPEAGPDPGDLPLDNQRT
PDE4D1, sequence (Q08499 1-584 isoform Q08499-4): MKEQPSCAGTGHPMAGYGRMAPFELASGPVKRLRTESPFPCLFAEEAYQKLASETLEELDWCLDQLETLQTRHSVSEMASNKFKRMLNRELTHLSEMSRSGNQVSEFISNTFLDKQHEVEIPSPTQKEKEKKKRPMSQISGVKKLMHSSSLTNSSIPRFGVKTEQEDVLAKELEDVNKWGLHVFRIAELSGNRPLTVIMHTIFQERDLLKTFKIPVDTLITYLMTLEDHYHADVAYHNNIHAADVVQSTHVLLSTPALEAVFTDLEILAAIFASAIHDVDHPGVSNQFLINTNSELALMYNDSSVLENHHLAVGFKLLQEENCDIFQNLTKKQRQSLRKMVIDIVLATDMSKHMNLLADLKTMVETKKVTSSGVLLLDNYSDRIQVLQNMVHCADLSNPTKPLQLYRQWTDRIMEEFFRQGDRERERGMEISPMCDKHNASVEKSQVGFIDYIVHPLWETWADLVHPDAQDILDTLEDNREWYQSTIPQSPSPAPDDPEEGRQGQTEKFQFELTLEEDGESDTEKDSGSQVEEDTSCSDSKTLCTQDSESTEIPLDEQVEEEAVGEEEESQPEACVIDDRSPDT

Regarding `COc1ccc(-c2ccn(CC(O)CN3CCOCC3)n2)cc1OC1CCCC1` (stereo not drawn) [XVIIIa, 1-{3-[3-(Cyclopentyloxy)-4-methoxyphenyl]-1H-pyrazol-1-yl}-3-morpholin-4-ylpropan-2-ol dihydrocloride], the “PDE4D2 % inib at 10 μM” value at PDE4D2 worked out at 28%. On PDE4A4, the “PDE4A4 % inib at 10 μM” value came to 22%. In addition, the “hippocampal extracellular cAMP” value in [1] (30 μM by reverse dialysis) was “slight, though not significant, increase”. Besides, the “hippocampal extracellular cAMP response” value in [1] (100 μM infused) is on record as 40-80 % over basal values. For the same compound, the “PDE4D3 % inib at 10 μM” value at PDE4D3 (10 μM, in duplicate) was found to be 68%. Moreover, half-maximal inhibition against PDE4D3 (five concentrations 10^−8-10^−4 M) (IC50) was put at 7.6 µM. In [2], the “LTP in WT littermates” value is on record as “without affecting LTP” and the “LTP in hippocampal slices from 12 month-old Tg mice” value is listed as “rescued the defect in LTP”. In the series with HTLA cells, the “DNA damage (γ-H2AX)” value was “not observed”. The compound further displayed a cytotoxicity at 24 h, 100 µM in series [3] of 3.3 ± 0.4%. Moreover, the “PDE4D1 % inib at 10 μM” value at PDE4D1 turned out to be 34%. Further, on PDE4C2, the “PDE4C2 % inib at 10 μM” value was found to be 11%. The compound further returned an AUC0-t in series [4] (setting [8]) of 812 ng·h/g. Besides, in [4] (setting [9]), the maximum concentration (Cmax) was 936 ng/g, the time to peak (Tmax) was 10.2 min and the half-life is 32.4 min. Besides, the Kp in series [4] (male, BALB/c, mouse, in vivo, sc, 10 mg/kg) came to 0.75. In series [4] (setting [10]), the AUC0-t came out at 1890 ng·h/mL, the peak level (Cmax) was 2160 ng/mL, the Tmax was 10.2 min and the half-life is 49.2 min. In addition, the “accumulation of forskolin (FSK)-induced cAMP, fold induction” value in series [5] (10 min pre-treatment, then 1 μM FSK 20 min) is 3 fold. Also, the “basal cAMP levels” value in series [5] is on record as “without affecting the basal cAMP levels”. Further, at PDE4B2, the “PDE4B2 % inib at 10 μM” value stood at 18%.

For the compound `OC(CN1CCOCC1)Cn1ccc(-c2ccc(OC(F)F)c(OC3CCCC3)c2)n1` (stereo not drawn) [XXIIa, 1-{3-[3-(cyclopentyloxy)-4-(difluoromethoxy)phenyl]-1H-pyrazol-1-yl}-3-morpholin-4-ylpropan-2-ol], the Alternations % is 60.86 ^### % in the series on spatial working memory (0.001 mg/kg), 63.54 ^### % with spatial working memory (0.003 mg/kg) and 61.88 ^### % with spatial working memory (0.01 mg/kg). For the same compound, the “PDE4A4 % inib at 10 μM” value at PDE4A4 was 11%. The “d2 (discrimination performance)” value in series [6] (0.0003 mg/kg) is 0.02 (0.05); in series [6] (0.001 mg/kg) it was 0.06 (0.05); in [6] (0.003 mg/kg, p < 0.001 vs zero), 0.34 (0.05) ^###; in series [6] (0.01 mg/kg), 0.05 (0.03). Further, the “memory function (OLT)” value in series [6] (0.003 mg/kg) is listed as “fully enhance memory function”. In series [6] (0.0003, 0.001 and 0.01 mg/kg), the “memory improvement (OLT)” value is “did not show any memory improvement at all”. The Time anesthetized in series [7] (0.003 mg/kg) is 112.28%; in series [7] (0.03 mg/kg) it was 109.52%; in series [7] (0.3 mg/kg) it was 107.45%; in series [7] (3.0 mg/kg), 91.22%. The emetic-like effects entry in series [7] (0.003-3.0 mg/kg, one-way ANOVA n.s.) is recorded as “does not have emetic-like effects”. Also, the “DNA damage (γ-H2AX)” value in the series on HTLA cells was “not observed”. In series [3], this compound registered a cytotoxicity at 24 h, 100 µM of 0.1 ± 0.36%. Further, the AUC0-t was found to be 2330 ng·h/g in [4] (setting [8]) and 861 ng·h/mL in series [4] (setting [11]). In series [4] (setting [8]), this compound displayed a t1/2 of 57 min. This compound showed a peak concentration (Cmax) in series [4] (setting [11]) of 993 ng/mL. Besides, the Tmax in series [4] (setting [11]) amounted to 19.8 min. In [5], the “basal cAMP levels” value was “without affecting the basal cAMP levels”. The “PDE4B2 % inib at 10 μM” value at PDE4B2 is on record as 26%.
